# Measurements as given in patent US11491162B2, “Combination of quinoline-4-carboxamides and benzonaphthyridine derivatives as antimalarial drug combination” (Merck Patent GmbH, priority 2018, dated 2022).
# Values joined by “and” are separate entries in the source; they are usually repeats but may differ in a detail not shown here. Equal values may be shown once. Where a name gives a salt, the structure may show the parent alone. Read-outs that look alike come from different tables or passages of the source.
# Columns and labels:
# [1] = tested on: Caco-2 cells; experiment: In vitro permeability in Caco-2 cells; assay type: in vitro ADME; settings: pH 7.4/7.4, Table 8
# Method: (§1) Caco-2 cells are maintained in DMEM in an atmosphere of 8.5% CO2. For transport experiments 0.125×10^6 cells/well of are seeded on polycarbonate filter inserts and are allowed to grow and differentiate for 14±1 days before the cell monolayers are used for experiments. Drug transport experiments are carried out using a cocktail approach in a four-dimensional setting. […] […] The assays are performed in HBSS containing 25 mM HEPES (pH 7.4) in an atmosphere of 5% CO2 at 37° C. Prior to the study, the monolayers are washed in pre-warmed HBSS. At the start of the experiments pre-warmed HBSS containing the test items is added to the donor side of the monolayer and HBSS without test items is added to the receiver side. The plates are shaken at 150 rpm at 37° C. during the experiment. After 2 h the Transwell insert containing the monolayer is carefully removed and placed in a new plate and aliquots of both the receiver and donor sides were taken and diluted with an equal volume of acetonitrile containing the internal standard. The mixture is centrifuged and supernatant analyzed by LC-MS/MS. The apparent permeability coefficients (Papp) are calculated using the formula: Papp=[Vrec/(A×C0,donor)](dCrec/dt)×10^6 with dCrev/dt being the change in concentration in the receiver compartment with time, Vrec the volume of the sample in the receiver compartment, C0, donor the concentration in the donor compartment at time 0, and A the area of the compartment with the cells.
# [2] = In vitro permeability in Caco-2 cells; assay type: in vitro ADME; settings: human
# Method: as §1
# [3] = tested on: P. falciparum Pf3D7^0087/N9; experiment: In vivo SCID mouse model, oral therapeutic efficacy; set-up: species or system Plasmodium falciparum; settings: for % control: day 7; for Activity: day 7 vs untreated control, succinate salt
# Method: Compound efficacy was assessed against the Plasmodium falciparum strain Pf3D7^0087/N9 in vivo. Mice are infected intravenously with parasitized red blood cells on day 0. Experimental mice are generally treated at day 3, 4, 5, and 6 post-infection with an oral dose of the compound (single or 4-day oral dosing regimen) and are compared to an infected control group for reduction in parasitemia on day 7 (Maria Belen Jimenez-Díaz, Teresa Mulet, Sara Viera, Vanessa Gomez, Helen Garuti, Javier Ibanez, Angela Alvarez-Doval, Leonard D. Shultz, Antonio Martínez, Domingo Gargallo-Viola, and Inigo Angulo-Barturen, Improved Murine Model of Malaria Using Plasmodium falciparum Competent Strains and Non-Myelodepleted NOD-scid IL2Rgammanull Mice Engrafted with Human Erythrocytes, Antimicrob Agents Chemother. 2009, 53:4533).
# PYRO and M1 were solubilized in a vehicle consisting of 70% Tween-80 and 30% ethanol, followed by a 10-fold dilution in H2O.
# [4] = M1 4 × 0.2 MG/KG oral, SCID mice, Table 3
# [5] = M1 4 × 0.4 MG/KG oral, SCID mice, Table 3
# [6] = M1 4 × 0.6 MG/KG oral, SCID mice, Table 3
# [7] = M1 4 × 1.2 MG/KG oral, SCID mice, Table 3
# [8] = Table 4 entry 2: M1 4 × 1.2 mg/kg, PYRO 0 mg/kg, oral
structure (smiles),measurement,setting,value
"O=C(NCCN1CCCC1)c1cc(-c2ccc(CN3CCOCC3)cc2)nc2ccc(F)cc12 [M1, 6-fluoro-2-(4-morpholin-4-ylmethyl-phenyl)-quinoline-4-carboxylic acid (2-pyrrolidin-1-yl-ethyl)amide succinate salt]",PAPP (A-B),[1]; PYRO 0 μM,2.00 10E−6 CM/S
same,PAPP (B-A),[1]; PYRO 0.3 μM,30.90 10E−6 CM/S
same,PAPP (A-B),[1]; PYRO 100 μM,19.3 10E−6 CM/S
same,"efflux ratio at 2 h, 1 μM","[2]; Caco-2, pH 7.4, PYRO 0 μM, pH 7.4/7.4, Table 8",15.4
same,"efflux ratio at 2 h, 1 μM","[2]; Caco-2, pH 7.4, no P-gp inhibitor, pH 7.4/7.4, Table 7",18.2
same,"recovery at 2 h, 1 μM","[2]; Caco-2, pH 7.4, no P-gp inhibitor, pH 7.4/7.4, Table 7, read-out: RECOVERY apical to basolateral (A-B)",79.8%
same,"recovery at 2 h, 1 μM","[2]; Caco-2, pH 7.4, no P-gp inhibitor, pH 7.4/7.4, Table 7, read-out: RECOVERY basolateral to apical (B-A)",65.4%
same,"recovery at 2 h, 1 μM","[2]; Caco-2, pH 7.4, with Cyclosporine A 10 μM, with Cyclosporine A 10 μM, pH 7.4/7.4, Table 7, read-out: RECOVERY apical to basolateral (A-B)",72.5%
same,"recovery at 2 h, 1 μM","[2]; Caco-2, pH 7.4, with Cyclosporine A 10 μM, with Cyclosporine A 10 μM, pH 7.4/7.4, Table 7, read-out: RECOVERY basolateral to apical (B-A)",86.3%
same,"efflux ratio at 2 h, 1 μM","[2]; Caco-2, pH 7.4, with PYRO 0.3 μM, PYRO 0.3 μM, pH 7.4/7.4, Table 8",10.1
same,"efflux ratio at 2 h, 1 μM","[2]; Caco-2, pH 7.4, with PYRO 1 μM, PYRO 1 μM, pH 7.4/7.4, Table 8",14.5
same,"efflux ratio at 2 h, 1 μM","[2]; Caco-2, pH 7.4, with PYRO 3 μM, PYRO 3 μM, pH 7.4/7.4, Table 8",10.2
same,"efflux ratio at 2 h, 1 μM","[2]; Caco-2, pH 7.4, with PYRO 10 μM, PYRO 10 μM, pH 7.4/7.4, Table 8",11
same,"efflux ratio at 2 h, 1 μM","[2]; Caco-2, pH 7.4, with PYRO 30 μM, PYRO 30 μM, pH 7.4/7.4, Table 8",5.06
same,"efflux ratio at 2 h, 1 μM","[2]; Caco-2, pH 7.4, with PYRO 100 μM, PYRO 100 μM, pH 7.4/7.4, Table 8",2.42
same,"Papp at 2 h, 1 μM","[2]; Caco-2, with PYRO 0.3 μM, PYRO 0.3 μM, pH 7.4/7.4, Table 8",9.74 ×10⁻⁶ cm/s
same,"Papp A→B at 2 h, 1 μM","[2]; Caco-2, with PYRO 0.3 μM, PYRO 0.3 μM, pH 7.4/7.4, Table 8, read-out: PAPP (A-B)",3.07 ×10⁻⁶ cm/s
same,"Papp at 2 h, 1 μM","[2]; Caco-2, with PYRO 1 μM, PYRO 1 μM, pH 7.4/7.4, Table 8",8.25 ×10⁻⁶ cm/s
same,"Papp A→B at 2 h, 1 μM","[2]; Caco-2, with PYRO 1 μM, PYRO 1 μM, pH 7.4/7.4, Table 8, read-out: PAPP (A-B)",2.17 ×10⁻⁶ cm/s
same,"Papp B→A at 2 h, 1 μM","[2]; Caco-2, with PYRO 1 μM, PYRO 1 μM, pH 7.4/7.4, Table 8, read-out: PAPP (B-A)",31.4 ×10⁻⁶ cm/s
same,"Papp at 2 h, 1 μM","[2]; Caco-2, with PYRO 3 μM, PYRO 3 μM, pH 7.4/7.4, Table 8",12.3 ×10⁻⁶ cm/s
same,"Papp A→B at 2 h, 1 μM","[2]; Caco-2, with PYRO 3 μM, PYRO 3 μM, pH 7.4/7.4, Table 8, read-out: PAPP (A-B)",3.85 ×10⁻⁶ cm/s
same,"Papp B→A at 2 h, 1 μM","[2]; Caco-2, with PYRO 3 μM, PYRO 3 μM, pH 7.4/7.4, Table 8, read-out: PAPP (B-A)",39.1 ×10⁻⁶ cm/s
same,"Papp at 2 h, 1 μM","[2]; Caco-2, with PYRO 10 μM, PYRO 10 μM, pH 7.4/7.4, Table 8",11.3 ×10⁻⁶ cm/s
same,"Papp A→B at 2 h, 1 μM","[2]; Caco-2, with PYRO 10 μM, PYRO 10 μM, pH 7.4/7.4, Table 8, read-out: PAPP (A-B)",3.42 ×10⁻⁶ cm/s
same,"Papp B→A at 2 h, 1 μM","[2]; Caco-2, with PYRO 10 μM, PYRO 10 μM, pH 7.4/7.4, Table 8, read-out: PAPP (B-A)",37.6 ×10⁻⁶ cm/s
same,"Papp at 2 h, 1 μM","[2]; Caco-2, with PYRO 30 μM, PYRO 30 μM, pH 7.4/7.4, Table 8",16.4 ×10⁻⁶ cm/s
same,"Papp A→B at 2 h, 1 μM","[2]; Caco-2, with PYRO 30 μM, PYRO 30 μM, pH 7.4/7.4, Table 8, read-out: PAPP (A-B)",7.29 ×10⁻⁶ cm/s
same,"Papp B→A at 2 h, 1 μM","[2]; Caco-2, with PYRO 30 μM, PYRO 30 μM, pH 7.4/7.4, Table 8, read-out: PAPP (B-A)",36.9 ×10⁻⁶ cm/s
same,"Papp at 2 h, 1 μM","[2]; Caco-2, with PYRO 100 μM, PYRO 100 μM, pH 7.4/7.4, Table 8",30 ×10⁻⁶ cm/s
same,"Papp A→B at 2 h, 1 μM","[2]; Caco-2, with PYRO 100 μM, PYRO 100 μM, pH 7.4/7.4, Table 8, read-out: PAPP (A-B)",19.3 ×10⁻⁶ cm/s
same,"Papp B→A at 2 h, 1 μM","[2]; Caco-2, with PYRO 100 μM, PYRO 100 μM, pH 7.4/7.4, Table 8, read-out: PAPP (B-A)",46.7 ×10⁻⁶ cm/s
same,"Papp at 2 h, 1 μM","[2]; Caco-2, with none (PYRO 0 μM), PYRO 0 μM, pH 7.4/7.4, Table 8",7.8 ×10⁻⁶ cm/s
same,"Papp A→B at 2 h, 1 μM","[2]; Caco-2, with none (PYRO 0 μM), PYRO 0 μM, pH 7.4/7.4, Table 8, read-out: PAPP (A-B)",2 ×10⁻⁶ cm/s
same,"Papp B→A at 2 h, 1 μM","[2]; Caco-2, with none (PYRO 0 μM), PYRO 0 μM, pH 7.4/7.4, Table 8, read-out: PAPP (B-A)",30.6 ×10⁻⁶ cm/s
same,"Papp A→B at 2 h, 1 μM","[2]; Caco-2, with none (no P-gp inhibitor), no P-gp inhibitor, pH 7.4/7.4, Table 7, read-out: PAPP apical to basolateral (A-B)",2.97 ×10⁻⁶ cm/s
same,"Papp B→A at 2 h, 1 μM","[2]; Caco-2, with none (no P-gp inhibitor), no P-gp inhibitor, pH 7.4/7.4, Table 7, read-out: PAPP basolateral to apical (B-A)",54.2 ×10⁻⁶ cm/s
same,% PARASITEMIA day 3 post infection,[3]; [4],0.85%
same,% PARASITEMIA day 4 post infection,[3]; [4],1.33%
same,% PARASITEMIA day 5 post infection,[3]; [4],3.10%
same,% PARASITEMIA day 6 post infection,[3]; [4],3.35%
same,% PARASITEMIA day 7 post infection,[3]; [4],6.55%
same,% control,"[3]; M1 4 × 0.2 MG/KG oral, SCID mice",71.7%
same,Activity,"[3]; M1 4 × 0.2 MG/KG oral, SCID mice, 0.2 mg/kg",28.3%
same,% PARASITEMIA day 3 post infection,[3]; [5],0.70%
same,% PARASITEMIA day 4 post infection,[3]; [5],1.38%
same,% PARASITEMIA day 5 post infection,[3]; [5],1.18%
same,% PARASITEMIA day 6 post infection,[3]; [5],0.75%
same,% PARASITEMIA day 7 post infection,[3]; [5],0.55%
same,% control,"[3]; M1 4 × 0.4 MG/KG oral, SCID mice",6.0%
same,Activity,"[3]; M1 4 × 0.4 MG/KG oral, SCID mice, 0.4 mg/kg",94.9% and 94.0%
same,% PARASITEMIA day 3 post infection,[3]; [6],0.63%
same,% PARASITEMIA day 4 post infection,[3]; [6],0.70%
same,% PARASITEMIA day 5 post infection,[3]; [6],0.60%
same,% PARASITEMIA day 6 post infection,[3]; [6],0.13%
same,% PARASITEMIA day 7 post infection,[3]; [6],0.03%
same,% control,"[3]; M1 4 × 0.6 MG/KG oral, SCID mice",0.3%
same,Activity,"[3]; M1 4 × 0.6 MG/KG oral, SCID mice, 0.6 mg/kg",99.7%
same,% PARASITEMIA day 3 post infection,[3]; [7],0.50%
same,% PARASITEMIA day 4 post infection,[3]; [7],0.75%
same,% PARASITEMIA day 5 post infection,[3]; [7],0.43%
same,% PARASITEMIA day 6 post infection,[3]; [7],0.05%
same,% PARASITEMIA day 7 post infection,"[3]; M1 4 × 1.2 MG/KG oral, SCID mice, Table 3, LLQ = <0.01% parasitemia",<LLQ
same,% control,"[3]; M1 4 × 1.2 MG/KG oral, SCID mice, LLQ = <0.01% parasitemia",<LLQ
same,Activity,"[3]; M1 4 × 1.2 MG/KG oral, SCID mice, 1.2 mg/kg",100%
same,ED90,"[3]; M1, 4-day oral dosing, SCID mice, dose as free base",0.37 mg/kg
same,% PARASITEMIA day 3 post infection,[3]; [8],0.99%
same,% PARASITEMIA day 4 post infection,[3]; [8],1.04%
same,% PARASITEMIA day 5 post infection,[3]; [8],0.7%
same,% PARASITEMIA day 6 post infection,[3]; [8],0.12%
same,% PARASITEMIA day 7 post infection,[3]; [8],0.01%
same,% PARASITEMIA day 10 post infection,"[3]; Table 4 entry 2: M1 4 × 1.2 mg/kg, PYRO 0 mg/kg, oral, LLQ = <0.01% parasitemia",<LLQ
